We go through eight compounds from US5508385A, “Tripeptide derivatives containing pyroglutamic acid residue” (Nitto Boseki Co., Ltd., priority 1990, dated 1996).

Common to all, as to type: biochemical
For one experiment, the target named is T1, human serum kallikrein (Homo sapiens, UniProt P03952).
T1 construct: purchased Kabi Co., Ltd
The experiment is described as follows: Inhibitory activity against kallikrein (synthetic substrate S-2302). The note with it: substrate S-2302, pH 8.0, 37° C. From the text: (§1) As synthetic substrates for examining the activity of inhibitor for inhibiting digestion of the substrates with enzyme, there were used PS-994 (H-D-Lys(Tos)-Phe-Lys-CHA.2HCl; manufactured by Nitto Boseki Co., Ltd.) for plasmin, PS-915 (H-D-Phe-Pro-Arg-CHA.2HCl; manufactured by Nitto Boseki Co., Ltd.) for thrombin and trypsin; PS-2000 (Z-D-Lys(HCO)-Gly-Arg-CHA.HCl; manufactured by Nitto Boseki Co., Ltd.) for factor Xa; S-2302 (H-D-Pro-Phe-Arg-pNA; manufactured by Kabi Co., Ltd.) for kallikrein; and [drawing 2] manufactured by Nitto Boseki Co., Ltd.) for urokinase.
(§2) As plasmin, thrombin, trypsin, factor Xa, kallikrein and urokinase, there were used 0.3 CU/ml of standard plasmin from Sankyo Color Test α2 -PI Measurement Kit, 1.2 NIH U/ml of thrombin from Sankyo Color Test AT-III Measurement Kit, 2 μg/ml of trypsin of Code 3703 of Worthington, 0.25 U/ml of human factor Xa manufactured by Boehringer Mannheim, 0.12 U/ml of human serum kallikrein manufactured by Kabi Co., Ltd. and 1000 U/ml of Urokinase 60000 (60,000 U/vial) manufactured by Mochida Pharmaceutical Co., Ltd., respectively. As a stopping (color forming) solution, there was used the one from the kit of Sankyo Color Test in the case of CHA type substrate. Enzyme reactions were carried out at 37° C.
To 0.4 ml of buffer solution (150 mM sodium chloride aqueous solution containing 50 mM Tris, pH 8.0) is added 0.1 ml of an aqueous solution of the inhibitor. After the mixture is heated for 5 minutes, 0.1 ml of kallikrein solution (containing 0.5% bovine serum albumin, No. A-8022 manufactured by Sigma Co.) is added thereto followed by reaction for 5 minutes. Further 10 mM S-2302 aqueous solution (0.1 ml) is added thereto. After reacting for 5 minutes, 5 ml of 20% acetic acid aqueous solution is added to terminate the reaction. Absorbance is measured at 405 nm and IC50 is determined according to the method described above.

The target in the next experiment is plasmin (Homo sapiens, UniProt P00747). The experiment is described as follows: Inhibitory activity against plasmin (synthetic substrate PS-994). Particulars: Table 3; substrate PS-994, pH 7.8, 37° C. As to the method:
As a stopping (color forming) solution, there was used the one from the kit of Sankyo Color Test in the case of CHA type substrate. Enzyme reactions were carried out at 37° C.
To 0.4 ml of buffer solution (150 mM sodium chloride aqueous solution containing 100 mM Tris, pH 7.8) is added an aqueous solution (0.1 ml) of the inhibitor having various concentrations. The mixture is heated for 5 minutes. After 0.2 ml of plasmin solution is added thereto, the mixture is reacted for 5 minutes. […] After completion of the reaction, 2.0 ml of the stopping color forming solution is added.

The target of a further experiment is thrombin (Bos taurus, UniProt P00735). The experiment is described as follows: Inhibitory activity against thrombin (synthetic substrate PS-915). Particulars: Table 3; substrate PS-915, pH 8.5, 37° C.
Source text: as §1, §2
To 0.4 ml of buffer solution (150 mM sodium chloride aqueous solution containing 150 mM Tris, pH 8.5) is added an aqueous solution (0.1 ml) of the inhibitor having various concentrations. The mixture is heated for 5 minutes. After 0.2 ml of thrombin solution is added thereto, the mixture is reacted for 5 minutes. Then 0.1 ml of PS-915 solution (10 mM) is added followed by reaction for 5 minutes. Thereafter, 2 ml of the stopping color forming solution is added. After allowing to stand for 10 minutes, absorbance is measured at 700 nm and IC50 is determined according to the method described above.

A further experiment addresses T2, trypsin (Bos taurus, UniProt P00760).
T2 construct: purchased Worthington Code 3703
T2 sequence (P00760 24-246): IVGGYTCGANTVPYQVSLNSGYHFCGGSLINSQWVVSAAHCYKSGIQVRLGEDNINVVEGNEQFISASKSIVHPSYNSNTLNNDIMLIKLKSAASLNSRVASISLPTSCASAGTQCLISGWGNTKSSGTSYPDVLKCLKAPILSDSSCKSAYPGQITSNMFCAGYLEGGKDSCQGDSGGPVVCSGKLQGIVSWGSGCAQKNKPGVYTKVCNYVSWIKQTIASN
The experiment is described as follows: Inhibitory activity against trypsin (synthetic substrate PS-915). The note with it: Table 3; substrate PS-915, pH 8.0, 37° C.
Source text: as §1, §2
To 0.5 ml of buffer solution (150 mM sodium chloride aqueous solution containing 150 mM Tris, pH 8.0) is added 0.1 ml of an aqueous solution of the inhibitor. After the mixture is heated for 5 minutes, 0.1 ml of trypin solution is added thereto. Further 0.1 ml of PS-915 solution (10 mM) is added followed by reaction for 5 minutes. Thereafter, 2 ml of the stopping color forming solution [containing 2.5 mg/ml of soybean trypsin inhibitor (manufactured by Sigma Co., No. T-9003)] is added. After allowing to stand for 10 minutes, absorbance is measured at 700 nm and IC50 is determined according to the method described above.

The target in the next experiment is T3, human factor Xa (Homo sapiens, UniProt P00742).
T3 construct: purchased Boehringer Mannheim
The experiment is described as follows: Inhibitory activity against factor Xa (synthetic substrate PS-2000). Particulars: Table 3; substrate PS-2000, pH 8.5, 37° C.
Source text: as §1, §2
To 0.3 ml of buffer solution (150 mM sodium chloride aqueous solution containing 50 mM Tris, pH 8.5) is added 0.1 ml of an aqueous solution of the inhibitor having various concentrations. After the mixture is heated for 5 minutes, 0.1 ml of factor Xa solution (150 mM sodium chloride aqueous solution containing 50 mM Tris and 20 mM calcium chloride, pH 8.5) is added thereto and the mixture is reacted for 5 minutes. Further 5% polyvinylpyrrolidone solution (0.1 ml) containing 10 mM PS-2000 is added followed by reaction for 5 minutes. Thereafter, 2 ml of the stopping color forming solution is added. After allowing to stand for 10 minutes, absorbance is measured at 700 nm and IC50 is determined according to the method described above.

In another experiment the target is T4, urokinase (Homo sapiens, UniProt P00749).
T4 construct: purchased Mochida Pharmaceutical Co., Ltd. Urokinase 60000 (60,000 U/vial)
The experiment is described as follows: Inhibitory activity against urokinase (synthetic substrate MUK-34). Particulars: Table 3; substrate MUK-34, pH 8.20, 37° C.
Source text: as §1, §2
To 0.3 ml of buffer solution (150 mM sodium chloride aqueous solution containing 50 mM Tris, pH 8.20) is added 0.1 ml of an aqueous solution of the inhibitor having various concentrations. After the mixture is heated for 5 minutes, 0.1 ml of urokinase solution (150 mM sodium chloride aqueous solution containing 50 mM Tris and 0.1% BSA, pH 8.20) is added thereto and the mixture is reacted for 5 minutes. Then 10 mM MUK-34 aqueous solution (0.1 ml) is added to the mixture. After reacting for 5 minutes, 10% acetic acid aqueous solution (2.0 ml) is added to terminate the reaction. Absorbance is measured at 405 nm and IC50 is determined according to the method described above.

[1] abbreviates: Table 3, read-out: IC50, kallikrein (Table 3).

Structures can show the parent of a compound that is named as a salt. Where two headings read alike, the source gives them in different places. Where a SMILES comes first, the peptide text is derived from it. [ ]: non-standard residue; d: D form. pGlu = O=C1CC[C@@H](C(=O)O)N1

T1 sequence (P03952 391-638 limits assumed): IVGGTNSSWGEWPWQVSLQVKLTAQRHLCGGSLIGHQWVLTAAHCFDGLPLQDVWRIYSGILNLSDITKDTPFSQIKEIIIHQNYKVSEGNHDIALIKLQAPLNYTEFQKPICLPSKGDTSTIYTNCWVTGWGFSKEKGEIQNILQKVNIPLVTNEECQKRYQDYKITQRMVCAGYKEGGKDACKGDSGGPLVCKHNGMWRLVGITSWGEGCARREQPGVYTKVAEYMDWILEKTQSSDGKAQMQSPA
T1 sequence (P03952 20-390 partner limits assumed): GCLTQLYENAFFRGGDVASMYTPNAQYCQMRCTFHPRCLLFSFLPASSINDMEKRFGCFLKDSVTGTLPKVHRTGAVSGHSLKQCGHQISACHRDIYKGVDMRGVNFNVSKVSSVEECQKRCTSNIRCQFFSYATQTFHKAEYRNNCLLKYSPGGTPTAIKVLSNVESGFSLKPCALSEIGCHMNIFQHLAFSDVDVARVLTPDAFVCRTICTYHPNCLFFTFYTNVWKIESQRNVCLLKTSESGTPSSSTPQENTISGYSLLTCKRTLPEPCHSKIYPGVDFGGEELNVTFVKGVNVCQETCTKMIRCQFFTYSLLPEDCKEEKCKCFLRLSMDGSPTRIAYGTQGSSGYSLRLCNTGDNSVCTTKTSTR
Chain of plasmin (P00747 97-810): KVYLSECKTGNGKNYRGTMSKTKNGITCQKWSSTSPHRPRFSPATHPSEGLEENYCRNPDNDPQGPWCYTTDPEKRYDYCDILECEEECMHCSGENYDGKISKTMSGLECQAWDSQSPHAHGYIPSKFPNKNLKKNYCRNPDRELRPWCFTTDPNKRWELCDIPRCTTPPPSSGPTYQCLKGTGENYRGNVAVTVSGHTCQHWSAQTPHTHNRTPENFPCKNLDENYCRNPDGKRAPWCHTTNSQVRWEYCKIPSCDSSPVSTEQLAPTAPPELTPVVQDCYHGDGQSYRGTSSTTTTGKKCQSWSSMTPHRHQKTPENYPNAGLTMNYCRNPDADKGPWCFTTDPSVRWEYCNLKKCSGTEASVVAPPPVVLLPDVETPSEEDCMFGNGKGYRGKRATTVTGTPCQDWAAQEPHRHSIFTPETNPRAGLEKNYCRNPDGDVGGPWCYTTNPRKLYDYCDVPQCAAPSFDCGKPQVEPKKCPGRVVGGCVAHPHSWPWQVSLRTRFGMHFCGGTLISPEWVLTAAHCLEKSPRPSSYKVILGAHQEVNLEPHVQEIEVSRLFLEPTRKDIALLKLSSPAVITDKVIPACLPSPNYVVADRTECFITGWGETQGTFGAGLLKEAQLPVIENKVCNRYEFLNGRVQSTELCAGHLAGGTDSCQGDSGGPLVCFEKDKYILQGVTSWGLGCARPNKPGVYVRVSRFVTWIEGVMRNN
T3 sequence (P00742 235-488 limits assumed): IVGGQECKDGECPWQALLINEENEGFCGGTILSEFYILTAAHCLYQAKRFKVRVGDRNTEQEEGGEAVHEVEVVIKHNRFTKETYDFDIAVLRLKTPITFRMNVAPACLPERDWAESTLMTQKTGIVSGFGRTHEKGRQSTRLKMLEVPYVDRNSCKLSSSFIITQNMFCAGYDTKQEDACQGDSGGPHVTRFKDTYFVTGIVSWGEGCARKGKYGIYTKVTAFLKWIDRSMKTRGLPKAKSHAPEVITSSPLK
T3 sequence (P00742 41-179 partner limits assumed): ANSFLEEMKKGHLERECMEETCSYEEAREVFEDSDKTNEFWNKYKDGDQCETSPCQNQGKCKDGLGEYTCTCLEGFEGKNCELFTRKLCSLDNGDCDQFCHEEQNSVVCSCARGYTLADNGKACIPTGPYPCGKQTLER

Consider `CC(=O)N[C@@H](CC(C)C)C(=O)N[C@@H](CC(C)C)C(=O)N[C@H](C=O)CCCNC(=N)N` [Example A1, acetyl-L-leucyl-L-leucyl-L-argininal, reference compound], for which the IC50 on human serum kallikrein (Table 2, read-out: IC50 of Known Compound, Kallikrein) came to 6.9 µM.
For “N-benzyloxycarbonyl-D-pyroglutamyl-L-prolyl-L-argininal hydrochloride [Example 6]”, the IC50 on plasmin came to 4.6 µM; on thrombin it was 22 µM; at trypsin, 0.062 µM; on human serum kallikrein (setting [1]) it was 13 µM; at human factor Xa, 5 µM; at urokinase it was 1.1 µM.
In the case of “N-benzyloxycarbonyl-L-pyroglutamyl-L-phenylalanyl-L-argininal hydrochloride [Example 3]”, the IC50 was found to be 1.1 µM against plasmin; 35 µM at thrombin; 0.069 µM against trypsin; 0.42 µM on human serum kallikrein (setting [1]); 0.59 µM against human factor Xa; 76 µM at urokinase.
As to “N-benzyloxycarbonyl-D-pyroglutamyl-L-phenylalanyl-L-argininal hydrochloride [Example 9]”, the 50% inhibitory concentration (IC50) against plasmin was 1.3 µM; on thrombin it was above 100 µM; against trypsin, 1 µM; at human serum kallikrein (setting [1]) it was 0.87 µM; against human factor Xa, 0.72 µM; against urokinase, 40 µM.
For “N-benzyloxycarbonyl-D-pyroglutamyl-L-leucyl-L-argininal hydrochloride [Example 7]”, the IC50 against plasmin is 2.8 µM; on thrombin, above 100 µM; on trypsin, 0.43 µM; on human serum kallikrein (setting [1]), 3.1 µM; at human factor Xa it was 4.7 µM; on urokinase it was 30 µM.
Turning to `N=C(N)NCCC[C@@H](C=O)NC(=O)[C@@H]1CCCN1C(=O)[C@@H]1CCC(=O)N1` [Example 13, L-pyroglutamyl-L-prolyl-L-argininal 1/2 sulfate] ([pGlu]-Pro-Arg-aldehyde), the IC50 stood at 1.4 µM against plasmin; 22 µM against thrombin; 0.02 µM against trypsin; 5.5 µM at human serum kallikrein (setting [1]); 13 µM at human factor Xa; 0.68 µM against urokinase.
As to “N-benzyloxycarbonyl-L-pyroglutamyl-L-alanyl-L-argininal hydrochloride [Example 2]”, the IC50 at plasmin turned out to be 7.2 µM; at thrombin, 5.9 µM; on trypsin it was 0.0074 µM; on human serum kallikrein (setting [1]) it was 7.8 µM; at human factor Xa, 0.52 µM; at urokinase it was 7.6 µM.
For the compound “N-benzyloxycarbonyl-L-pyroglutamyl-L-prolyl-L-argininal hydrochloride [Example 1]”, the IC50 on plasmin was found to be 3.2 µM; on thrombin, 0.056 µM; against trypsin, 0.0062 µM; on human serum kallikrein (setting [1]), 5 µM; against human factor Xa it was 0.36 µM; at urokinase it was 22 µM.

A word on the IC50: it is the concentration that gives 50% inhibition.
